# Earlier results, collected in patent publication US10564084B2, “Rapid characterization of the solubility of amphiphiles” (The Trustees of Princeton University, priority 2013, dated 2020).
# Conditions: in water; used to rescale the concentration c
compound,measurement,value
"CCCCCCCCCCCCCCCC[N+](C)(C)C.[Cl-] [C16TAC, hexadecyl trimethylammonium chloride]",critical micellar concentration cmc,1.6 mM
